From the supplement of paper PMC10307832

Columns and labels:
Assay in all cases: relative viability (nuclei count vs DMSO), 5 days (fraction); higher = more cells survive
[1] = compound: CC1=C(N=C(N=C1N)[C@H](CC(=O)N)NC[C@@H](C(=O)N)N)C(=O)N[C@@H]([C@H](C2=CN=CN2)OC3C(C(C(C(O3)CO)O)O)OC4C(C(C(C(O4)CO)O)OC(=O)N)O)C(=O)N[C@H](C)[C@H]([C@H](C)C(=O)N[C@@H]([C@@H](C)O)C(=O)NCCC5=NC(=CS5)C6=NC(=CS6)C(=O)NCCC[S+](C)C)O [Bleomycin] + Cc1nc(Nc2ncc(C(=O)Nc3c(C)cccc3Cl)s2)cc(N2CCN(CCO)CC2)n1 [Dasatinib] (partner 0.075 µM); details: main component drawn
In short: (§1)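 For relative viability, nuclei counts in treated wells were divided by those in vehicle wells. Lung cancer cell lines had been pin-tool dosed in 1536-well plates the day after seeding and cultured for 5 days, then fixed and stained in one step (final 0.05% Triton X-100, 1% formaldehyde, 1 ug/ml Hoechst) and imaged at 4×. Doses were one drug alone or a fixed anchor-drug dose plus five library-drug doses (not always all listed) in √10 steps, and values are duplicate-plate medians.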

[2] = compound: CC1=C(N=C(N=C1N)[C@H](CC(=O)N)NC[C@@H](C(=O)N)N)C(=O)N[C@@H]([C@H](C2=CN=CN2)OC3C(C(C(C(O3)CO)O)O)OC4C(C(C(C(O4)CO)O)OC(=O)N)O)C(=O)N[C@H](C)[C@H]([C@H](C)C(=O)N[C@@H]([C@@H](C)O)C(=O)NCCC5=NC(=CS5)C6=NC(=CS6)C(=O)NCCC[S+](C)C)O [Bleomycin] + Nc1nc2[nH]cc(CCc3ccc(C(=O)N[C@@H](CCC(=O)O)C(=O)O)cc3)c2c(=O)[nH]1 [Pemetrexed] (partner 0.2 µM); details: main component drawn
In short: as §1

[3] = compound: CC1=C(N=C(N=C1N)[C@H](CC(=O)N)NC[C@@H](C(=O)N)N)C(=O)N[C@@H]([C@H](C2=CN=CN2)OC3C(C(C(C(O3)CO)O)O)OC4C(C(C(C(O4)CO)O)OC(=O)N)O)C(=O)N[C@H](C)[C@H]([C@H](C)C(=O)N[C@@H]([C@@H](C)O)C(=O)NCCC5=NC(=CS5)C6=NC(=CS6)C(=O)NCCC[S+](C)C)O [Bleomycin] + C[C@]1(O)C[C@@H](c2nc(-c3ccc4ccc(-c5ccccc5)nc4c3)c3c(N)nccn32)C1 [Linsitinib] (partner 1 µM); details: main component drawn
In short: as §1

[4] = compound: COc1cc([C@@H]2c3cc4c(cc3[C@@H](O[C@@H]3O[C@@H]5CO[C@@H](C)O[C@H]5[C@H](O)[C@H]3O)[C@H]3COC(=O)[C@H]23)OCO4)cc(OC)c1O [Etoposide] + CS(=O)(=O)CCNCc1ccc(-c2ccc3ncnc(Nc4ccc(OCc5cccc(F)c5)c(Cl)c4)c3c2)o1 [Lapatinib] (partner 2 µM)
In short: as §1

Row | Cell Line | relative viability ([1]; first compound 0.01 µM) | relative viability ([1]; first compound 0.03162 µM) | relative viability ([1]; first compound 0.1 µM) | relative viability ([1]; first compound 0.3162 µM) | relative viability ([1]; first compound 1 µM) | relative viability ([2]; first compound 0.01 µM) | relative viability ([2]; first compound 0.03162 µM) | relative viability ([2]; first compound 0.1 µM) | relative viability ([2]; first compound 0.3162 µM) | relative viability ([2]; first compound 1 µM) | relative viability ([3]; first compound 0.01 µM) | relative viability ([3]; first compound 0.03162 µM) | relative viability ([3]; first compound 0.1 µM) | relative viability ([3]; first compound 0.3162 µM) | relative viability ([3]; first compound 1 µM) | relative viability ([4]; first compound 0.01 µM) | relative viability ([4]; first compound 0.03162 µM) | relative viability ([4]; first compound 0.1 µM) | relative viability ([4]; first compound 0.3162 µM) | relative viability ([4]; first compound 1 µM)
1 | NCI-H2342 | 0.311 | 0.335 | 0.339 | 0.274 | 0.277 | 0.837 | 0.759 | 0.685 | 0.539 | 0.62 | – | – | – | – | – | – | – | – | – | –
2 | SK-MES-1 | 0.329 | 0.316 | 0.232 | 0.0893 | 0.0963 | 0.767 | 0.899 | 0.807 | 0.379 | 0.213 | 0.923 | 0.974 | 0.819 | 0.287 | 0.216 | 0.461 | 0.538 | 0.368 | 0.426 | 0.272
3 | NCI-H2087 | – | 0.852 | 0.668 | 0.131 | 0.13 | 0.645 | 0.619 | 0.622 | 0.241 | 0.186 | 0.717 | 0.977 | 0.895 | 0.374 | 0.255 | – | 0.83 | 0.912 | 0.551 | 0.278
4 | HCC-366 | 0.504 | 0.412 | 0.444 | 0.0996 | 0.0443 | 0.169 | 0.207 | 0.178 | 0.0708 | 0.0498 | 0.29 | 0.229 | 0.171 | 0.0412 | 0.0312 | 0.978 | 0.882 | 0.382 | 0.0593 | 0.0394
5 | 201T | 0.527 | 0.529 | 0.546 | 0.444 | 0.463 | 0.332 | 0.283 | 0.303 | 0.281 | 0.271 | 0.959 | 1.05 | 1.05 | 1 | 0.83 | 1.07 | 1.05 | 0.916 | 0.921 | 0.729
6 | HCC-827 | 0.228 | 0.24 | 0.338 | 0.245 | 0.225 | 0.252 | – | 0.25 | 0.235 | 0.207 | 0.943 | 1.02 | 0.88 | 0.666 | 0.308 | 0.172 | 0.262 | 0.205 | 0.208 | 0.134
7 | NCI-H650 | 0.389 | 0.438 | 0.432 | 0.289 | 0.212 | 0.708 | 0.951 | 0.78 | 0.479 | 0.34 | 0.585 | 0.791 | 0.582 | 0.328 | 0.199 | 0.657 | 0.951 | 0.409 | 0.418 | 0.207
8 | NCI-H2023 | 0.345 | 0.316 | 0.302 | 0.163 | 0.129 | 0.178 | 0.204 | 0.157 | 0.136 | 0.0973 | 0.543 | 0.465 | 0.321 | 0.143 | 0.106 | 0.886 | 0.895 | 0.293 | 0.372 | 0.0709
9 | NCI-H596 | 0.548 | 0.531 | 0.395 | 0.24 | 0.221 | 0.474 | 0.46 | 0.465 | 0.305 | 0.332 | 0.79 | 0.73 | 0.554 | 0.442 | 0.43 | 0.94 | 1.03 | – | 1.08 | 0.625
10 | SK-LU-1 | 0.169 | 0.166 | 0.173 | 0.144 | 0.104 | 0.934 | 1.04 | 0.965 | 0.473 | 0.465 | 0.821 | 0.921 | 0.929 | 0.471 | 0.39 | 0.752 | 0.949 | 0.375 | 0.261 | 0.202
11 | A-427 | 0.53 | 0.56 | 0.496 | 0.137 | 0.144 | 0.875 | 0.917 | 0.868 | 0.432 | 0.288 | 0.999 | 1.08 | 1.05 | 0.893 | 0.266 | 1.04 | 1.06 | 0.807 | 0.604 | 0.196
12 | NCI-H460 | 0.362 | 0.318 | 0.244 | 0.0443 | 0.037 | 0.0698 | 0.0674 | 0.0717 | 0.0385 | 0.0443 | 0.448 | 0.356 | 0.158 | 0.0344 | 0.0252 | 0.726 | 0.732 | 0.394 | 0.0299 | 0.0144
13 | NCI-H1703 | – | – | – | – | – | – | – | – | – | – | 1.06 | 0.639 | 0.517 | 0.321 | 0.19 | – | 1.14 | 0.866 | 0.376 | 0.271
14 | NCI-H1792 | 0.698 | 0.805 | 1.01 | 0.439 | 0.283 | 0.71 | 0.756 | 0.87 | 0.426 | 0.312 | 0.515 | 0.484 | 0.281 | 0.202 | 0.189 | 0.939 | 0.832 | 0.883 | 0.798 | 0.595
15 | Calu-6 | – | – | – | – | – | – | – | – | – | – | 0.741 | 0.6 | 0.508 | 0.174 | 0.125 | 1.04 | 0.903 | 1.13 | 0.435 | 0.284
